ChEMBL document CHEMBL4043273, “Phenotypic Optimization of Urea-Thiophene Carboxamides To Yield Potent, Well Tolerated, and Orally Active Protective Agents against Aminoglycoside-Induced Hearing Loss” (J Med Chem, 2018)

Species on record: Danio rerio
Assay: Protection against neomycin-induced hair cell death in AB zebra fish larvae assessed as increase in hair cell survival preincubated for 1 hr followed by neomycin challenge for 1 hr by DASPEI staining-based epifluorescence dissecting microscopic method
Type: functional

CCN1CCc2c(sc(NC(=O)Nc3ccc(Br)cc3)c2C(N)=O)C1
EC50: 3.13 µM

CCN1CCc2c(sc(NC(=O)Nc3ccc(Cl)cc3)c2C(=O)NCCN2CCOCC2)C1
EC50: 9.38 µM

CCN1CCc2c(sc(NC(=O)CN3CCCCC3)c2C(N)=O)C1
EC50: > 25 µM

NC(=O)c1c(NC(=O)Nc2ccc(Cl)cc2)sc2c1CCCC2
EC50: > 25 µM

CC(C)N1CCc2c(sc(NC(=O)Nc3ccc(Cl)cc3)c2C(N)=O)C1
EC50: 1.49 µM

CCN1CCc2c(sc(NC(=O)c3ccccc3)c2C(N)=O)C1
EC50: > 25 µM

CC(C)(C)OC(=O)CCCCC[N+]1(C)CCc2c(sc(NC(=O)Nc3ccc(Cl)cc3)c2C(N)=O)C1 (centres undefined)
EC50: 0.11 µM

CC(C)(C)OC(=O)CN1CCc2c(sc(NC(=O)Nc3ccc(Cl)cc3)c2C(N)=O)C1
EC50: > 25 µM

CC(C)(C)OC(=O)CCCCN1CCc2c(sc(NC(=O)Nc3ccc(Cl)cc3)c2C(N)=O)C1
EC50: 0.71 µM

COCCC[N+]1(C)CCc2c(sc(NC(=O)Nc3ccc(Cl)cc3)c2C(N)=O)C1 (centres undefined)
EC50: 0.48 µM

CCN1CCc2c(sc(NC(=O)Nc3ccc(Cl)cc3)c2C(=O)NC)C1
EC50: > 25 µM

CCN1CCc2sc(NC(=O)Nc3ccc(Cl)cc3)c(C(N)=O)c2C1
EC50: 4.61 µM

CN1C2CCC1c1c(sc(NC(=O)Nc3ccc(Cl)cc3)c1C(N)=O)C2 (racemic)
EC50: 0.36 µM

CCN1CCc2c(sc(NC(=O)C3(C(=O)Nc4ccc(Cl)cc4)CC3)c2C(N)=O)C1
EC50: > 25 µM

CCN1CCc2c(sc(NC(=O)[C@@H]3CCCN3)c2C(N)=O)C1
EC50: > 25 µM

NC(=O)c1c(NC(=O)Nc2ccc(Cl)cc2)sc2c1CCNC2
EC50: 3.26 µM

Cc1c(CN2CCOCC2)sc(NC(=O)Nc2ccc(Cl)cc2)c1C(N)=O
EC50: 6.92 µM

CCN1CCc2c(sc(NC(=O)Nc3cccc(C#N)c3)c2C(N)=O)C1
EC50: 10.3 µM

CC(C)CN1CCc2c(sc(NC(=O)Nc3ccc(Cl)cc3)c2C(N)=O)C1
EC50: 4.51 µM

NC(=O)c1c(NC(=O)Nc2ccc(Cl)cc2)sc2c1CCN(CC1CCCCC1)C2
EC50: 1.89 µM

CCN1CCc2c(sc(NC(=O)Nc3ccc(Cl)cc3)c2C(=O)N2CCOCC2)C1
EC50: > 25 µM

CCN1CCc2c(sc(NC(=O)Nc3cccc(C)c3)c2C(N)=O)C1
EC50: 13 µM

COCCCN1CCc2c(sc(NC(=O)Nc3ccc(Cl)cc3)c2C(N)=O)C1
EC50: 2.4 µM

CC(C)(C)OC(=O)N1CCc2c(sc(NC(=O)Nc3ccc(Cl)cc3)c2C(N)=O)C1
EC50: > 25 µM

NC(=O)c1c(NC(=O)Nc2ccc(Cl)cc2)sc2c1[C@H]1CC[C@@H](C2)N1
EC50: 5 µM

CCCCc1nnc(NC(=O)Nc2ccc(Cl)cc2)s1
EC50: > 25 µM

CCN1CCc2c(sc(NC(=O)Nc3ccc(Cl)cc3)c2C(=O)NCCO)C1
EC50: 9.4 µM

C[N+]1(CC2CCCC2)CCc2c(sc(NC(=O)Nc3ccc(Cl)cc3)c2C(N)=O)C1 (centres undefined)
EC50: 0.2 µM

CCN1CCc2c(sc(NC(=O)Nc3ccc(Cl)cc3)c2C(=O)OC)C1
EC50: > 25 µM

NC(=O)c1c(NC(=O)Nc2ccc(Cl)cc2)sc2c1C[C@H]1CC[C@@H]2N1
EC50: 3.92 µM

CCN1CCc2c(sc(NC(=O)NCC3CCCO3)c2C(N)=O)C1 (centres undefined)
EC50: > 25 µM

NC(=O)c1c(NC(=O)Nc2ccc(Cl)cc2)sc2c1CCN(CC1CCC1)C2
EC50: 1.36 µM

CC(C)(C)OC(=O)CCN1CCc2c(sc(NC(=O)Nc3ccc(Cl)cc3)c2C(N)=O)C1
EC50: 1.1 µM

CC1CCc2nc(NC(=O)Nc3ccc(Cl)cc3)sc2C1 (centres undefined)
EC50: > 25 µM

CCC1CCc2c(sc(NC(=O)Nc3ccc(Cl)cc3)c2C(N)=O)C1 (centres undefined)
EC50: > 25 µM

CCN1CCc2c(sc(NC(=S)Nc3ccc(Cl)cc3)c2C(N)=O)C1
EC50: 6.57 µM

CCN1CCc2c(ccc(NC(=O)Nc3ccc(Cl)cc3)c2C(N)=O)C1
EC50: > 25 µM

O=C(Cc1ccc(Cl)cc1)Nc1nc(C(=O)N2CCCCC2)cs1
EC50: > 25 µM

CCN1CCc2c(sc(NC(=O)Nc3ccc(Cl)cc3)c2C(=O)c2nc(C)no2)C1
EC50: > 25 µM

C[N+]1(CC2CC2)CCc2c(sc(NC(=O)Nc3ccc(Cl)cc3)c2C(N)=O)C1 (centres undefined)
EC50: 0.36 µM

CC(C)(C)OC(=O)CCC[N+]1(C)CCc2c(sc(NC(=O)Nc3ccc(Cl)cc3)c2C(N)=O)C1 (centres undefined)
EC50: 0.25 µM

CCN1CCc2c(sc(NC(=O)Nc3ccc(Cl)cc3)c2C(=O)NC2COC2)C1
EC50: > 25 µM

NC(=O)c1c(NC(=O)Nc2ccc(Cl)cc2)sc2c1C1CCC(C2)N1 (racemic)
EC50: 0.11 µM

CC(C)[N+]1(C)CCc2c(sc(NC(=O)Nc3ccc(Cl)cc3)c2C(N)=O)C1 (centres undefined)
EC50: 0.96 µM

NC(=O)c1c(NC(=O)Nc2ccc(Cl)cc2)sc2c1CCN(CCCNC(=O)CCc1cccc3ccccc13)C2
EC50: 0.11 µM

NC(=O)c1c(NC(=O)Nc2ccc(Cl)cc2)sc2c1CCN(CC1CCCC1)C2
EC50: 1.83 µM

CCN1CCc2c(sc(NC(=O)Nc3cccc(Cl)c3Cl)c2C(N)=O)C1
EC50: 17.4 µM

CN1C2CCC1c1sc(NC(=O)Nc3ccc(Cl)cc3)c(C(N)=O)c1C2 (centres undefined)
EC50: 0.62 µM

CCN1Cc2sc(NC(=O)Nc3ccc(Cl)cc3)c(C(N)=O)c2C1
EC50: 4.34 µM

CN1[C@H]2CC[C@@H]1c1sc(NC(=O)Nc3ccc(Cl)cc3)c(C(N)=O)c1C2 (single isomer, unassigned)
EC50: 0.27 µM

CCN1CCc2c(sc(NC(=O)Nc3ccc(Cl)cc3)c2C(=O)O)C1
EC50: > 25 µM

CC[N+]1(CC)CCc2c(sc(NC(=O)Nc3ccc(Cl)cc3)c2C(N)=O)C1
EC50: 0.45 µM

NC(=O)c1c(NC(=O)Nc2ccc(Cl)cc2)sc2c1CC1CCC2N1 (centres undefined)
EC50: 0.21 µM

NC(=O)c1c(NC(=O)Nc2ccc(Cl)cc2)sc2c1CCN(C1CCOCC1)C2
EC50: 2.83 µM

CCC(C)(C)C1CCc2c(sc(NC(=O)Nc3ccc(Cl)cc3)c2C(N)=O)C1 (centres undefined)
EC50: > 25 µM

CC(C)C[N+]1(C)CCc2c(sc(NC(=O)Nc3ccc(Cl)cc3)c2C(N)=O)C1 (centres undefined)
EC50: 0.38 µM

CC(C)(C)CN1CCc2c(sc(NC(=O)Nc3ccc(Cl)cc3)c2C(N)=O)C1
EC50: 5.56 µM

CC(C)(C)OC(=O)CCCCCN1CCc2c(sc(NC(=O)Nc3ccc(Cl)cc3)c2C(N)=O)C1
EC50: 0.62 µM

CCN1CCc2c(sc(NC(=O)Nc3cscc3C(=O)OC)c2C(N)=O)C1
EC50: > 25 µM

CCC(O)c1cc2c(cc1NC(=O)Nc1ccc(Cl)cc1)OCCO2 (centres undefined)
EC50: > 25 µM

CCN1CCc2c(sc(NC(=O)Nc3ccc(Cl)cc3)c2C(=O)c2nnco2)C1
EC50: > 25 µM

CCN1CCc2c(sc(NC(=O)C3(c4ccc(Cl)cc4)CC3)c2C(N)=O)C1
EC50: > 25 µM

NC(=O)c1c(NC(=O)Nc2ccc(Cl)cc2)sc2c1CCN(CCCNC(=O)CCc1cccnc1)C2
EC50: 0.47 µM

CCN1CCc2c(sc(NC(=O)NCc3cccc(Cl)c3)c2C(N)=O)C1
EC50: > 25 µM

NC(=O)c1c(NC(=O)Nc2ccc(Cl)cc2)sc2c1CCN(CC1CC1)C2
EC50: 1.22 µM

CCN1CCc2sc(NC(=O)Nc3ccc(Cl)cc3)c(C(N)=O)c2CC1
EC50: 5.8 µM

C[N+]1(CC2CCC2)CCc2c(sc(NC(=O)Nc3ccc(Cl)cc3)c2C(N)=O)C1 (centres undefined)
EC50: 0.21 µM

CCN1CCc2c(sc(NC(=O)Nc3ccc(C(F)(F)F)cc3)c2C(N)=O)C1
EC50: 2.91 µM

CN1CCc2c(sc(NC(=O)Nc3ccc(Cl)cc3)c2C(N)=O)C1
EC50: 4.7 µM

CCN1CCc2c(sc(NC(=O)Nc3ccccc3)c2C(N)=O)C1
EC50: > 25 µM

CC(C)(C)OC(=O)CCCC[N+]1(C)CCc2c(sc(NC(=O)Nc3ccc(Cl)cc3)c2C(N)=O)C1 (centres undefined)
EC50: 0.14 µM

CCN1CCc2c(sc(NC(=O)Nc3ccc(Cl)cc3Cl)c2C(N)=O)C1
EC50: 11.5 µM

CCN1CCCc2c(sc(NC(=O)Nc3ccc(Cl)cc3)c2C(N)=O)C1
EC50: 3.98 µM

CC(C)(C)OC(=O)CCCN1CCc2c(sc(NC(=O)Nc3ccc(Cl)cc3)c2C(N)=O)C1
EC50: 0.56 µM
